Measurements published in the supplement of paper PMC13380429.

Assays:
Conditions in all cases: 72 h
Caco-2 [1] = test: cell viability relative to DMSO; higher = less toxic
Calu-3 [2] = test: as above
HepG2 [3] = test: as above
U2OS [4] = test: as above
Vero E6 [5] = test: as above
Caco-2 [6] = test: relative viability EC50 (midpoint between 100% and the lowest measured viability); higher = less toxic
Calu-3 [7] = test: as above
HepG2 [8] = test: as above
U2OS [9] = test: as above
Vero E6 [10] = test: as above
Caco-2 [11] = test: drug sensitivity score (DSS) for viability; higher = more toxic; extreme values may be limits of the assay
Calu-3 [12] = test: as above
HepG2 [13] = test: as above
U2OS [14] = test: as above
Vero E6 [15] = test: as above

Compound	cell viability (Caco-2 [1]; 1 nM)	cell viability (Caco-2 [1]; 10 nM)	cell viability (Caco-2 [1]; 100 nM)	cell viability (Caco-2 [1]; 1000 nM)	cell viability (Caco-2 [1]; 10000 nM)	cell viability (Calu-3 [2]; 1 nM)	cell viability (Calu-3 [2]; 10 nM)	cell viability (Calu-3 [2]; 100 nM)	cell viability (Calu-3 [2]; 1000 nM)	cell viability (Calu-3 [2]; 10000 nM)	cell viability (HepG2 [3]; 1 nM)	cell viability (HepG2 [3]; 10 nM)	cell viability (HepG2 [3]; 100 nM)	cell viability (HepG2 [3]; 1000 nM)	cell viability (HepG2 [3]; 10000 nM)	cell viability (U2OS [4]; 1 nM)	cell viability (U2OS [4]; 10 nM)	cell viability (U2OS [4]; 100 nM)	cell viability (U2OS [4]; 1000 nM)	cell viability (U2OS [4]; 10000 nM)	cell viability (Vero E6 [5]; 1 nM)	cell viability (Vero E6 [5]; 10 nM)	cell viability (Vero E6 [5]; 100 nM)	cell viability (Vero E6 [5]; 1000 nM)	cell viability (Vero E6 [5]; 10000 nM)	relative viability EC50 (Caco-2 [6])	relative viability EC50 (Calu-3 [7])	relative viability EC50 (HepG2 [8])	relative viability EC50 (U2OS [9])	relative viability EC50 (Vero E6 [10])	drug sensitivity score (Caco-2 [11])	drug sensitivity score (Calu-3 [12])	drug sensitivity score (HepG2 [13])	drug sensitivity score (U2OS [14])	drug sensitivity score (Vero E6 [15])
O=C(Nc1ccc(S(=O)(=O)Nc2ccccc2Cl)c(Cl)c1)c1ccccn1	95.7%	88.6%	104%	101%	89.8%	108%	91.9%	89.8%	87.3%	98.2%	99.3%	99.8%	91.4%	101%	103%	94.8%	93.7%	103%	97.8%	98.6%	91.6%	96.7%	93.6%	101%	105%	> 10 µM	> 10 µM	> 10 µM	> 10 µM	> 10 µM	0	1.8	0	0	0
COC(=O)Nc1ccc(-c2nc(N3CCOCC3)c3cnn(C4CCN(Cc5cccnc5)CC4)c3n2)cc1 [WYE-687]	93.6%	93.9%	88%	47.8%	21.6%	100%	95.5%	79.2%	37.2%	20.4%	97.5%	111%	92.8%	54%	17.6%	104%	97%	100%	74.2%	19%	94.2%	95.9%	89.3%	71.3%	37.6%	0.496 µM	0.271 µM	0.818 µM	1.36 µM	0.925 µM	11.5	14.2	10.1	8.2	6.9
O=C(O)C1CSCN1 (stereo unspecified) [timonacic]	101%	102%	96.4%	88.3%	102%	115%	94.9%	94.6%	109%	104%	94.4%	98.7%	88.1%	98.4%	97.9%	103%	98.2%	99.5%	98.8%	102%	97%	99.6%	97.6%	98.9%	94.1%	> 10 µM	> 10 µM	> 10 µM	> 10 µM	> 10 µM	0	0	0	0	0
O=C(O[C@@H]1Cc2c(O)cc(O)cc2O[C@@H]1c1cc(O)c(O)c(O)c1)c1cc(O)c(O)c(O)c1 [epigallocatechin-gallate-(-)]	103%	99.1%	97.7%	99.7%	101%	103%	90.5%	103%	96.8%	97.1%	101%	107%	93.1%	97.8%	97.5%	100%	98.2%	103%	97%	97.3%	98.5%	100%	103%	98.2%	95.4%	> 10 µM	> 10 µM	> 10 µM	> 10 µM	> 10 µM	0	0	0	0	0
CC/C(=C(/CC)c1ccc(OP(=O)(O)O)cc1)c1ccc(OP(=O)(O)O)cc1 [fosfestrol]	84.6%	93.5%	97.2%	94.5%	104%	87%	84.9%	92.5%	108%	117%	102%	97.6%	105%	97.1%	107%	93.4%	105%	102%	102%	105%	94.2%	92.8%	92.4%	94.8%	108%	> 10 µM	> 10 µM	> 10 µM	> 10 µM	> 10 µM	0	0	0	0	0
O=P(O)(O)CN(CCN(CP(=O)(O)O)CP(=O)(O)O)CP(=O)(O)O [EDTMP]	98.2%	95.5%	95.4%	105%	104%	105%	100%	96%	97.1%	99%	88.5%	96.3%	96.5%	92.2%	106%	99.8%	95.9%	102%	97.8%	104%	96.1%	99.8%	102%	98.2%	91%	> 10 µM	> 10 µM	> 10 µM	> 10 µM	> 10 µM	0	0	0	0	0
O=C1NN(C(=O)Nc2ccc(Br)cc2)[C@@H](c2ccccc2)[C@@H]1c1ccccc1	103%	98.8%	100%	98.6%	96.7%	96.5%	90.4%	93.8%	91.2%	86%	104%	89.3%	91.1%	106%	89.1%	97.3%	95.4%	98.5%	94.8%	101%	–	–	–	–	–	> 10 µM	> 10 µM	> 10 µM	> 10 µM	–	0	0.3	0	0	–
COc1cc(N)c(Cl)cc1C(=O)OCCN1CCCCC1	88.3%	97.6%	86%	100%	110%	93.8%	108%	102%	103%	102%	112%	96.9%	106%	94.9%	103%	93.9%	99%	95.5%	100%	108%	96.3%	97.3%	98.7%	99.3%	99.5%	> 10 µM	> 10 µM	> 10 µM	> 10 µM	> 10 µM	0	0	0	0	0
CN(C)C(=O)n1nnnc1Cc1ccc(-c2ccccc2)cc1	106%	106%	100%	106%	40.1%	102%	98%	95.2%	111%	44.9%	125%	108%	110%	100%	43.3%	102%	105%	102%	104%	13.6%	107%	106%	103%	102%	29.1%	3.62 µM	3.91 µM	3.19 µM	3.44 µM	3.32 µM	2.8	2.3	3	4.5	3.7
CC[C@@H]1C(=O)OC[C@@H]1Cc1cncn1C [pilocarpine]	100%	98.1%	88.7%	91.3%	103%	109%	102%	103%	98.4%	97.9%	97.7%	95.3%	105%	104%	105%	106%	101%	101%	99.2%	100%	106%	104%	99.3%	106%	103%	> 10 µM	> 10 µM	> 10 µM	> 10 µM	> 10 µM	0	0	0	0	0
C[C@]12CC[C@@H]3c4ccc(O)cc4CC[C@H]3[C@@H]1CC[C@@H]2OC(=O)CCC1CCCC1 [estradiol-cypionate]	99.9%	106%	85.4%	97.2%	90%	82%	90.4%	103%	93%	102%	103%	96.5%	105%	95.8%	98.8%	99.6%	104%	99.2%	100%	96.7%	–	–	–	–	–	> 10 µM	> 10 µM	> 10 µM	> 10 µM	–	0	0	0	0	–
